# Source: patent US20230015949A1, “NEISSERIA TREATMENT USING CANNABINOIDS” (priority 2019, published 2023)
# Read-outs that look alike come from different tables or passages of the source.
# Experiments:
# Neisseria gonorrhoeae [1] = assay: Agar dilution MIC assay, 25 isolates (Example 3); assay type: cell-based; conditions: for Number of isolates at MIC 0.015 μg mL^−1 / Number of isolates at MIC 0.03 μg mL^−1 / Number of isolates at MIC 0.06 μg mL^−1 / Number of isolates at MIC 0.08 μg mL^−1 / Number of isolates at MIC 0.12 μg mL^−1 / Number of isolates at MIC 0.25 μg mL^−1 / Number of isolates at MIC 0.5 μg mL^−1 / Number of isolates at MIC 1 μg mL^−1 / Number of isolates at MIC 2 μg mL^−1 / Number of isolates at MIC 4 μg mL^−1 / Number of isolates at MIC 8 μg mL^−1 / Number of isolates at MIC >8 μg mL^−1 / Number of isolates at MIC ≤0.004 μg mL^−1: 25 isolates, agar dilution assay, MIC distribution; for MIC / MIC50 / MIC90: Neisseria gonorrhoeae, agar dilution; for MIC50 / MIC90: 25 isolates of N. gonorrhoeae
# Method: The MIC of Neisseria gonorrhoea was established using an agar dilution MIC assay.
# Test drugs were provided by Micromyx. All stock solutions were allowed to stand for at least 1 hr prior to use to auto-sterilize. Leftover stock solutions of comparator drugs were aliquoted and stored at −80° C. Suppliers, catalog/lot numbers, solvents, stock concentrations and testing ranges were as follows.
# Test organisms were reference strains from the American Type Culture Collection (ATCC; Manassas, Va.), isolates from WHO, isolates from the CDC antibiotic resistance bank, and clinical isolates from the Micromyx (MMX) repository. Upon receipt at Micromyx, the isolates were streaked under suitable conditions onto agar medium appropriate to each organism and were incubated for 24-48 hr at 35° C. Colonies harvested from these growth plates were resuspended in the appropriate medium containing a cryoprotectant. Aliquots of each suspension were then frozen at −80° C.
# Prior to testing, the isolates were sub-cultured onto Chocolate agar (Becton Dickenson [BD]/BBL; Sparks, Md., Cat. No. 221267, Lot No. 9346275) and placed at 35° C. in a CO2 incubator for 24 hrs.
# MIC values were determined using the agar dilution method (1, 2). All serial dilutions and liquid handling were performed by hand using sterile pipettes. […] Cannabidiol was prepared as a stock solution at 100× the final concentration in the appropriate solvent and diluted according to CLSI guidelines.
# Each test agent was mixed with molten (50-55° C.) GC media agar supplemented with 1% IsoVitalex. […] All other test agents were added to the medium in a ratio of 0.2 mL 100× test agent to 19.8 mL agar. Once test agents were added to the agar in a sterile tube, they were mixed gently and then poured into a sterile 110×15 mm petri dish. Plates were allowed to solidify at room temperature and placed in a laminar air flow hood with the covers off to remove condensed moisture on the agar surface.
# Next, each isolate was suspended to the equivalent of a 0.5 McFarland standard in saline using a Siemens Microscan turbidity meter and diluted 1:10. Each bacterial cell suspension was then transferred to wells in a stainless-steel replicator block. The prongs on the replicator deliver approximately 1-2 μl of inoculum to an agar surface. The resulting inoculum spots contained approximately 10^4 cells/spot.
# Each agar plate containing either test compound or no drug (control) was stamped with the replicator. All plates were placed with the agar surface up to allow for the inoculum to soak into the agar. The plates were inverted and incubated at 35° C. for 24 hrs in a CO2 incubator and finally inspected for growth.
# [2] = test system: Staphylococcus aureus ATCC 29213; conditions: S. aureus ATCC 29213, CLSI QC ranges shown in parentheses, cited from earlier work
# Neisseria gonorrhoeae [3] = conditions: N. gonorrhoeae ATCC 49226; in parentheses in broth microdilution columns; ranges are for agar dilution testing; cited from earlier work
# [4] = ATCC49226, N. gonorrhoeae ATCC 49226 (QC)
# [5] = N. gonorrhoeae MMX 10409 (CIP-R)
# [6] = NCTC13477, N. gonorrhoeae NCTC 13477 (WHO F)
# [7] = NCTC13478, N. gonorrhoeae NCTC 13478 (WHO G)
# [8] = NCTC13479, N. gonorrhoeae NCTC 13479 (WHO K)
# [9] = NCTC13480, N. gonorrhoeae NCTC 13480 (WHO L)
# [10] = NCTC13481, N. gonorrhoeae NCTC 13481 (WHO M)
# [11] = NCTC13482, N. gonorrhoeae NCTC 13482 (WHO N)
# [12] = NCTC13483, N. gonorrhoeae NCTC 13483 (WHO O)
# [13] = NCTC13817, N. gonorrhoeae NCTC 13817 (WHO U)
# [14] = NCTC13818, N. gonorrhoeae NCTC 13818 (WHO V)
# [15] = NCTC13819, N. gonorrhoeae NCTC 13819 (WHO W)
# [16] = NCTC13820, N. gonorrhoeae NCTC 13820 (WHO X)
compound,measurement,setting,value
"C=C(C)C1CCC(C)=CC1c1c(O)cc(CCCCC)cc1O (stereo not drawn) [CBD, 2-[3-methyl-6-(1-methylethenyl)-2-cyclohexen-1-yl]-5-pentyl-1,3-benzenediol]",Number of isolates at MIC 0.015 μg mL^−1,Neisseria gonorrhoeae [1],0
same,Number of isolates at MIC 0.03 μg mL^−1,Neisseria gonorrhoeae [1],0
same,Number of isolates at MIC 0.06 μg mL^−1,Neisseria gonorrhoeae [1],0
same,Number of isolates at MIC 0.08 μg mL^−1,Neisseria gonorrhoeae [1],0
same,Number of isolates at MIC 0.12 μg mL^−1,Neisseria gonorrhoeae [1],0
same,Number of isolates at MIC 0.25 μg mL^−1,Neisseria gonorrhoeae [1],0
same,Number of isolates at MIC 0.5 μg mL^−1,Neisseria gonorrhoeae [1],2
same,Number of isolates at MIC 1 μg mL^−1,Neisseria gonorrhoeae [1],14
same,Number of isolates at MIC 2 μg mL^−1,Neisseria gonorrhoeae [1],9
same,Number of isolates at MIC 4 μg mL^−1,Neisseria gonorrhoeae [1],0
same,Number of isolates at MIC 8 μg mL^−1,Neisseria gonorrhoeae [1],0
same,Number of isolates at MIC >8 μg mL^−1,Neisseria gonorrhoeae [1],0
same,Number of isolates at MIC ≤0.004 μg mL^−1,Neisseria gonorrhoeae [1],0
same,MIC,Neisseria gonorrhoeae [1]; [4],2 µg/mL
same,MIC,Neisseria gonorrhoeae [1]; N. gonorrhoeae CDC0165,2 µg/mL
same,MIC,Neisseria gonorrhoeae [1]; N. gonorrhoeae CDC0166,9 µg/mL
same,MIC,Neisseria gonorrhoeae [1]; N. gonorrhoeae CDC0167,1 µg/mL
same,MIC,Neisseria gonorrhoeae [1]; N. gonorrhoeae CDC 0172,7 µg/mL
same,MIC,Neisseria gonorrhoeae [1]; N. gonorrhoeae CDC 0175,1 µg/mL
same,MIC,Neisseria gonorrhoeae [1]; N. gonorrhoeae CDC 0177,1 µg/mL
same,MIC,Neisseria gonorrhoeae [1]; N. gonorrhoeae CDC 0178,2 µg/mL
same,MIC,Neisseria gonorrhoeae [1]; N. gonorrhoeae CDC 0180,7 µg/mL
same,MIC,Neisseria gonorrhoeae [1]; N. gonorrhoeae CDC 0181,0.5 µg/mL
same,MIC,Neisseria gonorrhoeae [1]; N. gonorrhoeae CDC 0194,1 µg/mL
same,MIC,Neisseria gonorrhoeae [1]; N. gonorrhoeae CDCO174,2 µg/mL
same,MIC,Neisseria gonorrhoeae [1]; [5],1 µg/mL
same,MIC,Neisseria gonorrhoeae [1]; [6],1 µg/mL
same,MIC,Neisseria gonorrhoeae [1]; [7],1 µg/mL
same,MIC,Neisseria gonorrhoeae [1]; [8],0.5 µg/mL
same,MIC,Neisseria gonorrhoeae [1]; [9],2 µg/mL
same,MIC,Neisseria gonorrhoeae [1]; [10],1 µg/mL
same,MIC,Neisseria gonorrhoeae [1]; [11],1 µg/mL
same,MIC,Neisseria gonorrhoeae [1]; [12],1 µg/mL
same,MIC,"Neisseria gonorrhoeae [1]; NCTC13484, N. gonorrhoeae NCTC 13484 (WHO P)",7 µg/mL
same,MIC,Neisseria gonorrhoeae [1]; [13],1 µg/mL
same,MIC,Neisseria gonorrhoeae [1]; [14],1 µg/mL
same,MIC,Neisseria gonorrhoeae [1]; [15],1 µg/mL
same,MIC,Neisseria gonorrhoeae [1]; [16],1 µg/mL
same,MIC50,Neisseria gonorrhoeae [1],1 µg/mL
same,MIC90,Neisseria gonorrhoeae [1],2 µg/mL
"CO/N=C(\C(=O)N[C@@H]1C(=O)N2C(C(=O)O)=C(CSc3nc(=O)c(=O)[nH]n3C)CS[C@H]12)c1csc(N)n1 [CRO, ceftriaxone]",CLSI QC range of MIC,[2],1 to 8 µg/mL
same,CLSI QC range of MIC,[2]; listed as Ceftriaxone,(1-8)^1 μg/mL
same,Number of isolates at MIC 0.015 μg mL^−1,Neisseria gonorrhoeae [1],6
same,Number of isolates at MIC 0.03 μg mL^−1,Neisseria gonorrhoeae [1],1
same,Number of isolates at MIC 0.06 μg mL^−1,Neisseria gonorrhoeae [1],6
same,Number of isolates at MIC 0.08 μg mL^−1,Neisseria gonorrhoeae [1],5
same,Number of isolates at MIC 0.12 μg mL^−1,Neisseria gonorrhoeae [1],1
same,Number of isolates at MIC 0.25 μg mL^−1,Neisseria gonorrhoeae [1],2
same,Number of isolates at MIC 0.5 μg mL^−1,Neisseria gonorrhoeae [1],0
same,Number of isolates at MIC 1 μg mL^−1,Neisseria gonorrhoeae [1],0
same,Number of isolates at MIC 2 μg mL^−1,Neisseria gonorrhoeae [1],1
same,Number of isolates at MIC 4 μg mL^−1,Neisseria gonorrhoeae [1],0
same,Number of isolates at MIC 8 μg mL^−1,Neisseria gonorrhoeae [1],0
same,Number of isolates at MIC >8 μg mL^−1,Neisseria gonorrhoeae [1],0
same,Number of isolates at MIC ≤0.004 μg mL^−1,Neisseria gonorrhoeae [1],3
same,MIC,Neisseria gonorrhoeae [1]; [4],0.015 µg/mL
same,MIC,Neisseria gonorrhoeae [1]; N. gonorrhoeae CDC0165,0.06 µg/mL
same,MIC,Neisseria gonorrhoeae [1]; N. gonorrhoeae CDC0167,0.004 µg/mL
same,MIC,Neisseria gonorrhoeae [1]; N. gonorrhoeae CDC 0175,0.008 µg/mL
same,MIC,Neisseria gonorrhoeae [1]; N. gonorrhoeae CDC 0177,0.015 µg/mL
same,MIC,Neisseria gonorrhoeae [1]; N. gonorrhoeae CDC 0178,0.06 µg/mL
same,MIC,Neisseria gonorrhoeae [1]; N. gonorrhoeae CDC 0181,0.008 µg/mL
same,MIC,Neisseria gonorrhoeae [1]; N. gonorrhoeae CDC 0194,0.25 µg/mL
same,MIC,Neisseria gonorrhoeae [1]; N. gonorrhoeae CDCO174,0.06 µg/mL
same,MIC,Neisseria gonorrhoeae [1]; [5],0.06 µg/mL
same,MIC,Neisseria gonorrhoeae [1]; [6],< 0.004 µg/mL
same,MIC,Neisseria gonorrhoeae [1]; [7],0.015 µg/mL
same,MIC,Neisseria gonorrhoeae [1]; [8],0.015 µg/mL
same,MIC,Neisseria gonorrhoeae [1]; [9],0.25 µg/mL
same,MIC,Neisseria gonorrhoeae [1]; [10],0.008 µg/mL
same,MIC,Neisseria gonorrhoeae [1]; [11],0.008 µg/mL
same,MIC,Neisseria gonorrhoeae [1]; [12],0.015 µg/mL
same,MIC,Neisseria gonorrhoeae [1]; [13],0.002 µg/mL
same,MIC,Neisseria gonorrhoeae [1]; [14],0.015 µg/mL
same,MIC,Neisseria gonorrhoeae [1]; [15],0.12 µg/mL
same,MIC,Neisseria gonorrhoeae [1]; [16],2 µg/mL
same,MIC50,Neisseria gonorrhoeae [1],0.015 µg/mL
same,MIC90,Neisseria gonorrhoeae [1],0.25 µg/mL
"CC[C@H]1OC(=O)[C@H](C)[C@@H](O[C@H]2C[C@@](C)(OC)[C@@H](O)[C@H](C)O2)[C@H](C)[C@@H](O[C@@H]2O[C@H](C)C[C@H](N(C)C)[C@H]2O)[C@](C)(O)C[C@@H](C)CN(C)[C@H](C)[C@@H](O)[C@]1(C)O [AZI, azithromycin]",CLSI QC range of MIC,[2],0.5 to 2 µg/mL
same,CLSI QC range of MIC,[2]; listed as Azithromycin,(0.5-2)^1 μg/mL
same,CLSI QC range of MIC,Neisseria gonorrhoeae [3],0.25 to 1 µg/mL
